Earlier results in patent publication US5670479A, “α-ketoamide derivatives as inhibitors of thrombosis” (Corvas International, Inc., priority 1994, dated 1997).
Converted amounts (≈) assume the structure as drawn.

Columns and labels:
thrombin [1] = details: Fusetani et al.; cited from earlier work
[2] = target: T1, microsomal aminopeptidase (Sus scrofa, UniProt P15145); details: Ocain et al. 1992; cited from earlier work
T1 sequence (P15145 1-963): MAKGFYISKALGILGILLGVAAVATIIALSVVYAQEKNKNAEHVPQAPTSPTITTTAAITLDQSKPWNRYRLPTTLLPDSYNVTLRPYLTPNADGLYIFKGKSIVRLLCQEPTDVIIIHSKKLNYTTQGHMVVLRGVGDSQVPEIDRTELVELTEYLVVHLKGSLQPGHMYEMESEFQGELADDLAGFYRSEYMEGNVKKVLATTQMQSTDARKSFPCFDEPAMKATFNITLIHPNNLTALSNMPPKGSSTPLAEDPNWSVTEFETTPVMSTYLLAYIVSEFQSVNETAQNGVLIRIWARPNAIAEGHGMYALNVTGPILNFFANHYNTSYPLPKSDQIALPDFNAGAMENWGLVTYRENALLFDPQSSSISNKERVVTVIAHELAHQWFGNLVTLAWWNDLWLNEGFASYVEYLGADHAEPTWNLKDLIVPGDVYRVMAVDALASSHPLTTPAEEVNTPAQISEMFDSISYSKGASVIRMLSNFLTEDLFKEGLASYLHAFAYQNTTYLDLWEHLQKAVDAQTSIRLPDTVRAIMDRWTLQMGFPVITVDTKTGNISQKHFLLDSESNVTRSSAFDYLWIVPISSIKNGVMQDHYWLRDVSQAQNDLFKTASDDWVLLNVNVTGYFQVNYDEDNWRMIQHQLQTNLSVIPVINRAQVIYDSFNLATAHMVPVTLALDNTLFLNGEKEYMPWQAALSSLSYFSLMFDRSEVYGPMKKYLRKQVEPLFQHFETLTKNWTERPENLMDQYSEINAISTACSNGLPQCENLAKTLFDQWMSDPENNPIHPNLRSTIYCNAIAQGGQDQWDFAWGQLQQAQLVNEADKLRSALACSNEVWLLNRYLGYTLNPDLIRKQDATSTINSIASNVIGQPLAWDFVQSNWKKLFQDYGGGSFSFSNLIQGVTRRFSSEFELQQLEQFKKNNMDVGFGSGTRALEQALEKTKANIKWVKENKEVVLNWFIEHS

thrombin [3] = target: thrombin (Homo sapiens, UniProt P00734); details: reported in literature; cited from earlier work
baboons [4] = details: baboon, other direct antithrombins evaluated earlier in this model, cited from earlier work; for Antihemostatic Effects APTT: control 32 sec; for Antihemostatic Effects Bleeding Time: control 4 min
baboons [5] = details: baboon; dose which gives a 50% inhibition of platelet deposition; other direct antithrombins evaluated earlier in this model; cited from earlier work

For `N=C(N)NCCC[C@@H]1NC(=O)[C@@H]2CCCN2C(=O)[C@@H](NC=O)CNC(=O)/C=C/[C@H](Cc2ccc(O)cc2)NC(=O)[C@@H](Cc2ccccc2)NC(=O)C1=O` [Cyclotheonamide A], the “IC50 (thrombin)” value (thrombin [1]) is given as 76 µg/mL (≈ 104 µM).
In the case of `NC(=O)C(=O)C(N)Cc1ccccc1` (centres unmarked) [3-Amino-2-oxo-4-phenylbutanoic acid amide], the Ki [2] is given as 2.5 µM.
In the case of “N-acetyl-D-Phe-Pro Arg-[yC(=O)--CH2 ]--CH2 --CH2 --CH2 --(C=O)-Gln-Ser-His-Asn-Asp-Gly-Asp-Phe-Glu-Glu-Ile-Pro-Glu-Glu-Tyr-Leu-Gln”, the Ki (thrombin [3]) is listed as 0.00014 µM.
For `NC(N)=NCCC[C@H](NC(=O)[C@@H]1CCCN1C(=O)[C@H](N)Cc1ccccc1)B(O)O` [dF-P-boroR, D-phenyalanyl-prolinyl-boroarginine], the “Antihemostatic Effects APTT” value (baboons [4]) is given as 95 s, the “Antihemostatic Effects Bleeding Time” value (baboons [4]) is given as 12 min and the “Antithrombotic Effects ED50” value (baboons [5]) is given as 25 nmol/kg/min.
For `CC1CNc2c(cccc2S(=O)(=O)N[C@@H](CCCNC(=N)N)C(=O)N2CC[C@@H](C)C[C@@H]2C(=O)O)C1` (stereo partly drawn) [Argatroban, 2R,4R-4-methyl-1-[N-2-(3-methyl-1,2,3,4-tetrahydro-8-quinolinesulfonyl)-L-argininal]-2-piperdinecarboxylic acid], the “Antihemostatic Effects APTT” value (baboons [4]) is given as over 300 s and the “Antithrombotic Effects ED50” value (baboons [5]) is given as over 800 nmol/kg/min.
For `N=C(N)NCCC[C@@H](C=O)NC(=O)[C@@H]1CCCN1C(=O)[C@H](N)Cc1ccccc1` [dF-P-R-al, D-phenylalanyl-prolyl-argininal], the “Antihemostatic Effects APTT” value (baboons [4]) is listed as 145 s, the “Antihemostatic Effects Bleeding Time” value (baboons [4]) is listed as 14 min and the “Antithrombotic Effects ED50” value (baboons [5]) is listed as 250 nmol/kg/min.
